Tested on: control human primary myoblasts
Experiment: Expression microarray of primary myoblasts transduced with lentivirus carrying DUX4-fl, DUX4-s or GFP
Description: Primary human myoblasts were collected and cultured as previously described (Snider et al., 2010). Primary myoblasts were maintained at or below 70% confluency for proliferation. For differentiation, cells were allowed to reach 95-100% confluency in growth medium. Once confluency was reached, the cells were changed to differentiation medium (F10 media supplemented with 1% horse serum, 10 μg/mL insulin, and 10 μg/mL transferrin, penicillin/streptomycin) and maintained for 4 days. Human RD cells were grown in DMEM in 10% bovine calf serum (Hyclone) and penicillin/streptomycin. The primary myoblasts were transduced with lentivirus carrying DUX-fl, DUX4- or GFP (MOI=15).
Expression microarrays were performed on the transduced cells at 24 hours after transduction as follows. […] Samples were analyzed by Illumina Human Whole Genome microarrays. Probe intensities were corrected, normalized, and summarized by the Lumi package of Bioconductor (Du et al., 2008). Differentially expressed genes were identified by the LIMMA package of Bioconductor (Wettenhall and Smyth, 2004). Gene set enrichment analysis (GSEA) was performed using the Bioconductor GOstats package (Falcon and Gentleman, 2007).

DUX4-fl: full-length DUX4 protein (SEQ ID NO:110), expressed from lentiviral or pCS2 vectors or in vitro translated
CHI3L2 expression fc (Refseq NM_004000.2, cultured human skeletal muscle): −2.705 | IRF7 expression fc (Refseq NM_004029.2, cultured human skeletal muscle): −1.959 | CRY1 expression fc (Refseq NM_004075.2): 2.342 | PSPN expression fc (Refseq NM_004158.2): 2.203 | BEST1 fc (Refseq NM_004183.2): −1.101 | UBE2L6 expression fc (Refseq NM_004223.3, cultured human skeletal muscle): −3.085 | fc of STK17B (expression array) (Refseq NM_004226.2): −0.05995 | fc of SLC9A3R1 (expression array) (Refseq NM_004252.2): −1.036 | BST2 expression fc (Refseq NM_004335.2, cultured human skeletal muscle): −4.248 | CREB1 fc (Refseq NM_004379.2): −1.133 | fc of HOXB7 (expression array) (Refseq NM_004502.3): −1.037 | SP110 expression fc (Refseq NM_004510.2, cultured human skeletal muscle): −2.941 | PSPH fc (Refseq NM_004577.3): −1.164 | XPC expression fc (Refseq NM_004628.3, cultured human skeletal muscle): −2.458 | PABPN1 expression fc (Refseq NM_004643.1): 2.567 | MAP3K6 fc (Refseq NM_004672.3): −1.074 | fc of SLC16A5 (expression array) (Refseq NM_004695.2): −1.025 | fc of SFRS2IP (expression array) (Refseq NM_004719.2): −0.0565 | fc of ARHGEF2 (expression array) (Refseq NM_004723.2): −1.057 | TIAF1 fc (Refseq NM_004740.3): −1.123 | NOLC1 expression fc (Refseq NM_004741.1): 2.439 | SLIT2 expression fc (Refseq NM_004787.1): 2.369 | LPXN fc (Refseq NM_004811.1): −1.124 | PEX16 fc (Refseq NM_004813.1): −1.101 | C9orf61 expression fc (Refseq NM_004816.2): 2.614 | MED26 expression fc (Refseq NM_004831.3): 2.1 | fc of GSTO1 (expression array) (Refseq NM_004832.1): −1.03 | fc of LITAF (expression array) (Refseq NM_004862.2): −0.5892 | fc of SCAMPI (expression array) (Refseq NM_004866.4): −0.4749 | fc of APBA3 (expression array) (Refseq NM_004886.3): −1.032 | SERPINI1 expression fc (Refseq NM_005025.3): 1.809 | TRIM25 expression fc (Refseq NM_005082.4, cultured human skeletal muscle): −2.513 | SFRS17A expression fc (Refseq NM_005088.2): 2.456 | ISG15 expression fc (Refseq NM_005101.1, cultured human skeletal muscle): −4.311 | MVP fc (Refseq NM_005115.3): −1.178 | MED13 expression fc (Refseq NM_005121.2): 1.817 | fc of REC8 (expression array) (Refseq NM_005132.2): −1.007 | ATP6V0A1 fc (Refseq NM_005177.3): −1.152 | CEBPB expression fc (Refseq NM_005194.2, cultured human skeletal muscle): −2.441 | ETS1 fc (Refseq NM_005238.2): −1.067 | FAT1 fc (Refseq NM_005245.3): −1.138 | GPR37 expression fc (Refseq NM_005302.2): 2.121 | H1F0 expression fc (Refseq NM_005318.2, cultured human skeletal muscle): −2.434 | HSPA1A expression fc (Refseq NM_005345.4): 3.54 | HSPA1B expression fc (Refseq NM_005346.3): 3.402 | NEFM expression fc (Refseq NM_005382.1): 2.925 | SHMT2 fc (Refseq NM_005412.4): −1.089 | STAT2 expression fc (Refseq NM_005419.2, cultured human skeletal muscle): −2.69 | EOMES expression fc (Refseq NM_005442.2): 2.897 | TOM1 fc (Refseq NM_005488.1): −1.129 | HLA-B expression fc (Refseq NM_005514.5, cultured human skeletal muscle): −2.752 | HLA-E fc (Refseq NM_005516.4): −1.11 | IFI16 expression fc (Refseq NM_005531.1, cultured human skeletal muscle): −2.008 | IFI27 expression fc (Refseq NM_005532.3, cultured human skeletal muscle): −6.527 | IFI35 expression fc (Refseq NM_005533.2, cultured human skeletal muscle): −3.847 | IRS1 fc (Refseq NM_005544.1): −1.157 | KLC1 expression fc (Refseq NM_005552.4): 1.967 | RGS4 expression fc (Refseq NM_005613.3): 1.951 | SGK expression fc (Refseq NM_005627.2): 2.04 | TAF4B expression fc (Refseq NM_005640.1): 1.87 | fc of TERF2 (expression array) (Refseq NM_005652.2): −1.02 | fc of REEP5 (expression array) (Refseq NM_005669.4): −0.3556 | fc of HIPK3 (expression array) (Refseq NM_005734.3): −0.2982 | ARIH1 expression fc (Refseq NM_005744.2): 2.243 | fc of NAMPT (expression array) (Refseq NM_005746.2): −0.5767 | LHFPL2 fc (Refseq NM_005779.1): −1.13 | STX6 expression fc (Refseq NM_005819.4): 2.053 | fc of RCAN2 (expression array) (Refseq NM_005822.2): −0.5968 | MFGE8 fc (Refseq NM_005928.1): −1.15 | MT1X expression fc (Refseq NM_005952.2, cultured human skeletal muscle): −2.444 | SNAI1 expression fc (Refseq NM_005985.2): 1.943 | RBM12 expression fc (Refseq NM_006047.4): 2.013 | TRIM22 expression fc (Refseq NM_006074.3, cultured human skeletal muscle): −2.581 | CBARA1 expression fc (Refseq NM_006077.2): 2.064 | TUBB2C expression fc (Refseq NM_006088.5): 1.948 | LASP1 fc (Refseq NM_006148.1): −1.152 | NFE2L2 fc (Refseq NM_006164.2): −1.093 | OAS3 expression fc (Refseq NM_006187.2, cultured human skeletal muscle): −4.029 | fc of PDGFRL (expression array) (Refseq NM_006207.1): −0.6227 | PSME1 fc (Refseq NM_006263.2): −1.138 | STK3 expression fc (Refseq NM_006281.2): 2.186 | THY1 fc (Refseq NM_006288.2): −1.067 | TNFAIP3 expression fc (Refseq NM_006290.2, cultured human skeletal muscle): −2.897 | HSPB3 expression fc (Refseq NM_006308.1): 1.914 | NXF1 expression fc (Refseq NM_006362.4): 4.233 | fc of ATG7 (expression array) (Refseq NM_006395.1): −1.016 | SLC34A2 expression fc (Refseq NM_006424.2): 5.514 | TXNRD2 fc (Refseq NM_006440.3): −1.104 | fc of MXD4 (expression array) (Refseq NM_006454.2): −1.035 | ARID3B expression fc (Refseq NM_006465.2): 2.024 | TXNIP expression fc (Refseq NM_006472.2, cultured human skeletal muscle): −1.9 | ZNF217 expression fc (Refseq NM_006526.2): 4.114 | FAM189B fc (Refseq NM_006589.2): −1.075 | fc of TCFL5 (expression array) (Refseq NM_006602.2): −1.053 | RFPL2 expression fc (Refseq NM_006605.1): 7.293 | fc of NES (expression array) (Refseq NM_006617.1): −0.08904 | HSPH1 expression fc (Refseq NM_006644.2): 2.217 | HCP5 fc (Refseq NM_006674.2): −1.099 | UGP2 fc (Refseq NM_006759.3): −1.169 | IFI44L expression fc (Refseq NM_006820.1, cultured human skeletal muscle): −5.117 | fc of CKAP4 (expression array) (Refseq NM_006825.2): −1.006 | fc of ILVBL (expression array) (Refseq NM_006844.3): −1.015 | KDELR3 fc (Refseq NM_006855.2): −1.163 | fc of GMPR (expression array) (Refseq NM_006877.2): −0.4519 | SLC2A3 expression fc (Refseq NM_006931.1): 3.385 | fc of HSPA13 (expression array) (Refseq NM_006948.4): −0.1756 | ZBTB25 fc (Refseq NM_006977.2): −1.113 | ADAMTS1 fc (Refseq NM_006988.3): −1.164 | C1Oorf10 expression fc (Refseq NM_007021.2, cultured human skeletal muscle): −2.641 | fc of DNAJB4 (expression array) (Refseq NM_007034.3): −1.024 | KATNA1 expression fc (Refseq NM_007044.2): 1.819 | UBL3 expression fc (Refseq NM_007106.2): 2.164 | TESK2 expression fc (Refseq NM_007170.2): 1.787 | NUP50 expression fc (Refseq NM_007172.3): 2.324 | fc of PACSIN2 (expression array) (Refseq NM_007229.1): −1.038 | DUSP12 expression fc (Refseq NM_007240.1): 2.249 | fc of MGLL (expression array) (Refseq NM_007283.5): −1.033 | STAT1 expression fc (Refseq NM_007315.2, cultured human skeletal muscle): −2.915 | fc of LGALS9 (expression array) (Refseq NM_009587.2): −0.8549 | FRAT2 expression fc (Refseq NM_012083.2): 1.918 | fc of CDC42EP4 (expression array) (Refseq NM_012121.4): −1.034 | CHORDC1 expression fc (Refseq NM_012124.1): 1.805 | CLDN14 expression fc (Refseq NM_012130.2): 3.148 | TFIP11 expression fc (Refseq NM_012143.2): 3.191 | SIRT1 expression fc (Refseq NM_012238.3): 1.844 | KCNH4 expression fc (Refseq NM_012285.1): 2.749 | BAMBI expression fc (Refseq NM_012342.2): 2.783 | fc of TINF2 (expression array) (Refseq NM_012461.1): −1.025 | CD24 expression fc (Refseq NM_013230.2): 2.624 | ZNF214 expression fc (Refseq NM_013249.1): 2.219 | TBK1 fc (Refseq NM_013254.2): −1.08 | MYLIP expression fc (Refseq NM_013262.3): 1.824 | TRA2A expression fc (Refseq NM_013293.3): 1.978 | fc of EEF2K (expression array) (Refseq NM_013302.3): −1.058 | SERTAD1 expression fc (Refseq NM_013376.3): 2.002 | fc of SLC25A24 (expression array) (Refseq NM_013386.3): −0.2843 | fc of CLIC4 (expression array) (Refseq NM_013943.1): −0.9976 | BZW2 expression fc (Refseq NM_014038.1): 2.677 | LRP10 fc (Refseq NM_014045.3): −1.102 | fc of FAM156A (expression array) (Refseq NM_014138.3): −1.027 | SMARCAL1 fc (Refseq NM_014140.2): −1.157 | CCDC59 expression fc (Refseq NM_014167.2): 1.892 | fc of TDRD7 (expression array) (Refseq NM_014290.1): −1.062 | DDX58 expression fc (Refseq NM_014314.3, cultured human skeletal muscle): −2.466 | PDSS1 expression fc (Refseq NM_014317.3): 2.003 | AMACR expression fc (Refseq NM_014324.4): 2.743 | PPP1R15A expression fc (Refseq NM_014330.2): 2.08 | TSPAN13 expression fc (Refseq NM_014399.3): 2.117 | APOBEC3C fc (Refseq NM_014508.2): −1.108 | EVC expression fc (Refseq NM_014556.2, cultured human skeletal muscle): −1.954 | SCHIP1 expression fc (Refseq NM_014575.2, cultured human skeletal muscle): −2.093 | SLC40A1 expression fc (Refseq NM_014585.3): 1.859 | CDR2L fc (Refseq NM_014603.1): −1.119 | TAX1BP3 fc (Refseq NM_014604.2): −1.072 | CTR9 expression fc (Refseq NM_014633.3): 2.402 | SLC25A44 expression fc (Refseq NM_014655.1): 2.017 | MTSS1 fc (Refseq NM_014751.4): −1.159 | LBA1 fc (Refseq NM_014831.1): −1.121 | KIAA0020 expression fc (Refseq NM_014878.4): 2.017 | ABLIM3 fc (Refseq NM_014945.2): −1.174 | WDR47 expression fc (Refseq NM_014969.4): 2.277 | ARC expression fc (Refseq NM_015193.3): 1.802
